# In patent publication US20260144805A1, “CANNABIDIOL COMPOSITIONS FOR USE IN THE TREATMENT OF NEURODEGENERATIVE AND NEUROLOGICAL DISORDERS” (JAZZ PHARMACEUTICALS RESEARCH UK LIMITED, priority 2022, published 2026):
# Assays:
# [1] = tested on: rTg4510 mice; assay: Open Field (OF) test, locomotor activity in rTg4510 mouse model of Alzheimer's Disease (Example 2; DS = DS-C); format: in vivo; details: for Locomotor activity totals, Mean / Locomotor activity totals, % vs Wild-type / Locomotor activity totals, % vs rTg4510: Doxycycline 200 ppm diet
# Method: The aim of this study was to evaluate the efficacy of the present drug substance to modulate the agitation-like behaviours in the rTg4510 regulatable mouse model of Alzheimer's Disease (AD). Animals were tested in a behavioural assay, the Open Field (OF) test to measure locomotor activity (LMA). Activity was first assessed at a 21-week-old baseline to determine whether a hyperactive phenotype (to be used as a proxy for agitation) had developed and was further assessed at 2 subsequent ages in acute and chronic efficacy phases.
# Ninety male rTg4510 (CC) mice and 15 wild-type (WW) (Tg(Camk2a-tTA)1Mmay Fgf14^Tg(tetO-MAPT*P301L)4510Kha/J, Jax strain #024854, licensed from the Mayo Clinic, USA) were split into 2 cohorts, 4 weeks apart in age; cohort 1 contained 53 mice (8 WW and 45 CC) and cohort 2 contained 52 mice (7 WW and 45 CC). Relative humidity was 55±15% throughout. Mice were housed in individually ventilated cages on a 12 h/12 h light/dark cycle (lights on at 07.00 h; illumination by red light during the dark phase), at an ambient temperature of 24±4° C. with free access to standard rodent maintenance diet and filtered water. Animals were allowed to acclimatise to the above conditions for 7-10 days prior to the study start. All housing groupings were preserved until the mice were approximately 5 months old, at which point they were singly housed.
# Doxycycline administration: a subset of animals in cohort 2 (n=15) was administered 2× daily oral bolus doses of doxycycline hyclate (10 mg/kg p.o. in 5% glucose, Sigma Aldrich) at 13 weeks of age, followed by continuous exposure to normal lab chow containing 200 ppm doxycycline (Envigo Teklad 2018 TD.00502 no colourants, irradiated and vacuum-packed). All other animals received Envigo Teklad 2018 diet. All diet was provided ad libitum.
# Following this regime, animals were evaluated in Open Field (OF) test, before being deeply anaesthetised at the end of the behavioural testing prior to biofluid sampling and tissue harvesting.
# Specifically, the material was solubilised by the addition of 50 μL of 10% glacial acetic acid and making up to volume with 0.9% saline (Aquapharm, Animal Care, York, UK, Lot 21030311).
# Drug Substance (DS): (i.e., DS-C, See Table B in Example 1) Dosing volume was 10 mL/kg and DS was formulated at the 150 mg/kg dose in a vehicle of ethanol: Kolliphor HS15: 0.9% saline (1:12:87, w/w/v) which were stored at room temperature and added at approximately 60° C. to form solutions which were subsequently stable at room temperature. All dosing formulations were protected from light whenever possible. Dosing solutions were made fresh on the day of dosing, with lower dose formulations being prepared by dilution from the 150 mg/kg dosing solution at room temperature.
# Locomotor activity was assessed by OF test in the light phase of the light-dark cycle at weeks 21, 26 and 31. An automated beam break apparatus (40 cages) was used for the assessment of locomotor activity in rats and mice. Each cage had 4 beams; 1 ‘y’ and 3 ‘x’ which triggered a signal through capacitors when the beam was broken. Signals were collected by data loggers and processed accordingly. All animals were placed in the apparatus and spontaneous activity was assessed for a four-hour period between 0900 and 1300. Animals were then removed from the apparatus and returned to their home cages. LMA assessment was split over 2 consecutive days at each time point.
# For locomotor data, a log (x+1) transformation was used. For weeks 21 & 26, means and SEMs were calculated from the transformed data. Analysis was by Friedman's two-way nonparametric ANOVA with treatment and test day as factors to compare each group to the WW animals, and (where appropriate) Doxycycline with the untreated rTg4510 group. For week 30, data excluding the WW and Doxycycline groups for each time period were analysed by robust regression model using M estimation, Huber weighting, using the default parameter c=1.345. […]
# [2] = Weekly body weight of rTg4510 mice (Example 2); format: in vivo, mouse; details: rTg4510 mice fed doxycycline; 15 weeks of age
# Method: Weekly bodyweight: all animals were weighed weekly until the end of the study.
# Weekly body weight data were analysed by mixed linear model with the cohort by week and group by week interactions as fixed effects, animal as the random subject, using an AR (1)+RE correlation structure. Comparisons to the WW and rTg4510 (vehicle) groups for the same week were by the multiple t test.
# [3] = Brain weight of rTg4510 mice (Example 2); format: in vivo, mouse; details: rTg4510 CC mice administered doxycycline; end of study
# Method: Brain Tissue Collection: Mice were decapitated and the brains rapidly extracted. Brains were briefly washed in saline and blot dried then hemisected, weighed separately and frozen on dry ice before storage at approximately −80° C.
# Brain weights were analysed by 2-way analysis of variance with treatment and cohort as factors.
# [4] = Week 31, 0-240 minute period, doxycycline-treated group
compound,measurement,setting,value
"C[C@H]1c2cccc(O)c2C(=O)C2=C(O)[C@]3(O)C(=O)C(C(N)=O)=C(O)[C@@H](N(C)C)[C@@H]3[C@@H](O)[C@@H]21 [Doxycycline, doxycycline hyclate]","Locomotor activity totals, Mean","[1]; Week 21, 0-30 minutes",855.0
same,"Locomotor activity totals, Mean","[1]; Week 21, 0-60 minutes",1624.9
same,"Locomotor activity totals, Mean","[1]; Week 21, 0-240 minutes",3476.4
same,"Locomotor activity totals, Mean","[1]; Week 21, 30-60 minutes",749.9
same,"Locomotor activity totals, Mean","[1]; Week 21, 60-90 minutes",542.2
same,"Locomotor activity totals, Mean","[1]; Week 21, 60-120 minutes",880.1
same,"Locomotor activity totals, Mean","[1]; Week 21, 90-120 minutes",283.2
same,"Locomotor activity totals, Mean","[1]; Week 21, 120-150 minutes",227.4
same,"Locomotor activity totals, Mean","[1]; Week 21, 120-180 minutes",521.1
same,"Locomotor activity totals, Mean","[1]; Week 21, 150-180 minutes",181.8
same,"Locomotor activity totals, Mean","[1]; Week 21, 180-210 minutes",71.1
same,"Locomotor activity totals, Mean","[1]; Week 21, 180-240 minutes",212.8
same,"Locomotor activity totals, Mean","[1]; Week 21, 210-240 minutes",52.4
same,"Locomotor activity totals, Mean","[1]; Week 26, 0-30 minutes",903.7
same,"Locomotor activity totals, Mean","[1]; Week 26, 0-60 minutes",1606.6
same,"Locomotor activity totals, Mean","[1]; Week 26, 0-240 minutes",3435.5
same,"Locomotor activity totals, Mean","[1]; Week 26, 30-60 minutes",664.6
same,"Locomotor activity totals, Mean","[1]; Week 26, 60-90 minutes",489.8
same,"Locomotor activity totals, Mean","[1]; Week 26, 60-120 minutes",770.3
same,"Locomotor activity totals, Mean","[1]; Week 26, 90-120 minutes",186.7
same,"Locomotor activity totals, Mean","[1]; Week 26, 120-150 minutes",157.0
same,"Locomotor activity totals, Mean","[1]; Week 26, 120-180 minutes",459.9
same,"Locomotor activity totals, Mean","[1]; Week 26, 150-180 minutes",142.2
same,"Locomotor activity totals, Mean","[1]; Week 26, 180-210 minutes",185.3
same,"Locomotor activity totals, Mean","[1]; Week 26, 180-240 minutes",362.6
same,"Locomotor activity totals, Mean","[1]; Week 26, 210-240 minutes",41.3
same,"Locomotor activity totals, % vs Wild-type","[1]; Week 31, 0-30 minutes",143.2%
same,"Locomotor activity totals, % vs rTg4510","[1]; Week 31, 0-30 minutes",58.7%
same,"Locomotor activity totals, Mean","[1]; Week 31, 0-30 minutes",744.04
same,"Locomotor activity totals, % vs Wild-type","[1]; Week 31, 0-60 minutes",144.7%
same,"Locomotor activity totals, % vs rTg4510","[1]; Week 31, 0-60 minutes",47.6%
same,"Locomotor activity totals, Mean","[1]; Week 31, 0-60 minutes",1216.28
same,activity as % of the activity seen in the WW animals,[1]; [4],100.6%
same,activity as % of the activity seen in the rTg4510(vehicle) animals,[1]; [4],26.2%
same,"Locomotor activity totals, % vs Wild-type","[1]; Week 31, 30-60 minutes",141.7%
same,"Locomotor activity totals, % vs rTg4510","[1]; Week 31, 30-60 minutes",35.3%
same,"Locomotor activity totals, Mean","[1]; Week 31, 30-60 minutes",445.74
same,"Locomotor activity totals, % vs Wild-type","[1]; Week 31, 60-90 minutes",153.3%
same,"Locomotor activity totals, % vs rTg4510","[1]; Week 31, 60-90 minutes",37.0%
same,"Locomotor activity totals, Mean","[1]; Week 31, 60-90 minutes",231.53
same,"Locomotor activity totals, % vs Wild-type","[1]; Week 31, 60-120 minutes",176.8%
same,"Locomotor activity totals, % vs rTg4510","[1]; Week 31, 60-120 minutes",49.4%
same,"Locomotor activity totals, Mean","[1]; Week 31, 60-120 minutes",477.89
same,"Locomotor activity totals, % vs Wild-type","[1]; Week 31, 90-120 minutes",324.4%
same,"Locomotor activity totals, % vs rTg4510","[1]; Week 31, 90-120 minutes",110.8%
same,"Locomotor activity totals, Mean","[1]; Week 31, 90-120 minutes",165.38
same,"Locomotor activity totals, % vs Wild-type","[1]; Week 31, 120-150 minutes",134.8%
same,"Locomotor activity totals, % vs rTg4510","[1]; Week 31, 120-150 minutes",63.1%
same,"Locomotor activity totals, Mean","[1]; Week 31, 120-150 minutes",105.17
same,"Locomotor activity totals, % vs Wild-type","[1]; Week 31, 150-180 minutes",135.0%
same,"Locomotor activity totals, % vs rTg4510","[1]; Week 31, 150-180 minutes",33.9%
same,"Locomotor activity totals, Mean","[1]; Week 31, 150-180 minutes",28.13
same,"Locomotor activity totals, % vs Wild-type","[1]; Week 31, 180-210 minutes",8.9%
same,"Locomotor activity totals, % vs rTg4510","[1]; Week 31, 180-210 minutes",5.6%
same,"Locomotor activity totals, Mean","[1]; Week 31, 180-210 minutes",1.72
same,"Locomotor activity totals, % vs Wild-type","[1]; Week 31, 210-240 minutes",90.8%
same,"Locomotor activity totals, % vs rTg4510","[1]; Week 31, 210-240 minutes",117.5%
same,"Locomotor activity totals, Mean","[1]; Week 31, 210-240 minutes",16.18
same,body weight,[2],29.14 ± 0.50 g
same,mean brain weight,[3],408.8 ± 6.1 mg
